Measurements taken from patent publication US20060052376A1, “Carboxamides” (Merck Patent GmbH, priority 2002, published 2006).

Tests used:
FXa = FXa (Homo sapiens, UniProt P00742); assay: Factor Xa inhibition (FXa-IC50); format: biochemical
Text: The inhibition of factor Xa by the compounds according to the invention and the measurement of the anticoagulant and antithrombotic activity can be determined by conventional in-vitro or in-vivo methods. A suitable method is described, for example, by J. Hauptmann et al. in Thrombosis and Haemostasis 1990, 63, 220-223.
The inhibition of factor Xa can be measured, for example by the method of T. Hara et al. in Thromb. Haemostas. 1994, 71, 314-319.

TF/FVIIa = TF/FVIIa (Homo sapiens, UniProt P08709); assay: TF/FVIIa inhibition (TF/FVIIa-IC50); format: biochemical
Text: Coagulation factor VIIa initiates the extrinsic part of the coagulation cascade after binding to tissue factor and contributes to the activation of factor X to give factor Xa. Inhibition of factor Vila thus prevents the formation of factor Xa and thus subsequent thrombin formation. The inhibition of factor Vila by the compounds according to the invention and the measurement of the anticoagulant and antithrombotic activity can be determined by conventional in-vitro or in-vivo methods. A conventional method for the measurement of the inhibition of factor VIIa is described, for example, by H. F. Ronning et al. in Thrombosis Research 1996, 84, 73-81.

Chain of FXa (P00742 235-488 limits assumed): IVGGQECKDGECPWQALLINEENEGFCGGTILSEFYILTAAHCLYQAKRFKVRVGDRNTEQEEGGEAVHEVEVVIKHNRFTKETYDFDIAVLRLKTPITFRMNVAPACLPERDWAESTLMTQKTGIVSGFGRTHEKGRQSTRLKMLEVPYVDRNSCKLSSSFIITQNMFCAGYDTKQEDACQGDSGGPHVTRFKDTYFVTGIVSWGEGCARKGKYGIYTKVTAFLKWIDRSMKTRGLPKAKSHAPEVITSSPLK
Chain of FXa (P00742 41-179 partner limits assumed): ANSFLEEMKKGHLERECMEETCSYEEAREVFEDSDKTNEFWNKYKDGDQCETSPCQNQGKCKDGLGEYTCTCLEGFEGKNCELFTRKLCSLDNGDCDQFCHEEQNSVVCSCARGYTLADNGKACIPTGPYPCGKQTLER
Chain of TF/FVIIa (P08709 213-466 limits assumed): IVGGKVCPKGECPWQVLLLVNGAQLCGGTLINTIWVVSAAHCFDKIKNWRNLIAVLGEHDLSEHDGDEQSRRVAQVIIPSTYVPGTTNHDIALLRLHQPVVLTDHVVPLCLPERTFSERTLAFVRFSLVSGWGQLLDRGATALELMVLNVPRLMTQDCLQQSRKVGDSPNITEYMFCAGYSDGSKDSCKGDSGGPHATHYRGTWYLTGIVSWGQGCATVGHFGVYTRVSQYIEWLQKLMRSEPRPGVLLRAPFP
Chain of TF/FVIIa (P08709 61-212 partner limits assumed): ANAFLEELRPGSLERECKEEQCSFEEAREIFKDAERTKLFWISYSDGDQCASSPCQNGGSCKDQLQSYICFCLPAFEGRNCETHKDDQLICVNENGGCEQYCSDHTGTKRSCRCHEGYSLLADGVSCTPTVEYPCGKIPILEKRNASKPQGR
Chain of TF/FVIIa (P13726 33-295 partner): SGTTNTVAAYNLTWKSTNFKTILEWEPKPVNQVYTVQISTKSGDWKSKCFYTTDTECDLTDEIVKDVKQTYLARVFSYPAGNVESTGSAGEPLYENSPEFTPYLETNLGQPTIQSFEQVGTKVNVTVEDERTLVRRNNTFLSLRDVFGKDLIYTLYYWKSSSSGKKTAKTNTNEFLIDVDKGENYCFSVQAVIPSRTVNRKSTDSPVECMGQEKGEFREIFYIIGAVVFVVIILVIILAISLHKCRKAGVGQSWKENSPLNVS

IC50 (FXa) [µM]	IC50 (TF/FVIIa) [µM]	Structure (SMILES)
0.0073	0.0069	Cc1cc(NC(=O)[C@@H](CC(C)C)NC(=O)c2ccc(Cl)s2)ccc1N1CCOCC1=O [Compound 1A, (R)-2-[(5-chlorothiophene-2-carbonyl)amino]-N-[3-methyl-4-(3-oxomorpholin-4-yl)phenyl]-4-methylvaleramide]
0.039		CC(C)C[C@@H](NC(=O)c1ccc(Cl)s1)C(=O)Nc1ccc(-n2ccncc2=O)cc1 [Compound 2A, (R)-2-[(5-chlorothiophene-2-carbonyl)amino]-N-[4-(2-oxo-2H-pyrazin-1-yl)phenyl]4-methylvaleramide]
0.025		CC(C)C[C@@H](NC(=O)c1ccc(Cl)s1)C(=O)Nc1ccc(N2CCCCC2=N)cc1 [Compound 4A, (R)-2-[(5-chlorothiophene-2-carbonyl)amino]-N-[4-(2-iminopiperidin-1-yl)phenyl]-4-methylvaleramide]
0.26		CC(C)C[C@H](NC(=O)c1ccc(Cl)s1)C(=O)Nc1ccc(N2CCCCC2=N)cc1 [Compound 4B, (S)-2-[(5-chlorothiophene-2-carbonyl)amino]-N-[4-(2-iminopiperidin-1-yl)phenyl]-4-methylvaleramide]
